Like-named read-outs stand apart in the source and are kept apart here.
Tests used:
[1] = target: T1, human CYP2A6 (Homo sapiens (Human), UniProt P11509); test: biochemical
[2] = target: CYP3A4 (Homo sapiens (Human), UniProt P08684); test: CYP3A4 inhibition assay (testosterone 6-hydroxylation)
[3] = target: CYP3A4 relative to CYP2A6 (Homo sapiens (Human), UniProt P08684); test: in vitro; conditions: human, pH 7.5, Selectivity Ratio: IC50 (Inhibition of CYP3A4)/IC50 (Inhibition of CYP2A6)
[4] = target: T1, human CYP2A6; test: CYP2A6 mediated coumarin 7-hydroxylation inhibition; conditions: read-out: CYP2A6 IC50; coumarin 7-hydroxylation
[5] = target: Ach binding protein (AchBP) (Lymnaea stagnalis (Great pond snail) (Helix stagnalis), UniProt P58154)
Chain of Ach binding protein (AchBP) (P58154 20-229 limits assumed): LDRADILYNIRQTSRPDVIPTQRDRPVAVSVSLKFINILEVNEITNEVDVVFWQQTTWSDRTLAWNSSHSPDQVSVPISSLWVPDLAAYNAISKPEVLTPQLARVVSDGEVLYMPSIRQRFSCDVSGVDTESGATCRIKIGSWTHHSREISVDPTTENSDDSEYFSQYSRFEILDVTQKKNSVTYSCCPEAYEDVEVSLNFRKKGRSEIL
Text: To examine the degree of interaction with the nicotinic acetylcholine receptor, we examined the binding interaction of the synthetic inhibitors with the Ach binding protein (AchBP) from the fresh water snail (Table 3).

[6] = target: mouse CYP2A5 (Mus musculus (Mouse), UniProt P20852); test: Inhibition of mouse CYP2A5; assay type: biochemical; conditions: read-out: IC50 mCYP2A5
Chain of mouse CYP2A5 (P20852 whole entry): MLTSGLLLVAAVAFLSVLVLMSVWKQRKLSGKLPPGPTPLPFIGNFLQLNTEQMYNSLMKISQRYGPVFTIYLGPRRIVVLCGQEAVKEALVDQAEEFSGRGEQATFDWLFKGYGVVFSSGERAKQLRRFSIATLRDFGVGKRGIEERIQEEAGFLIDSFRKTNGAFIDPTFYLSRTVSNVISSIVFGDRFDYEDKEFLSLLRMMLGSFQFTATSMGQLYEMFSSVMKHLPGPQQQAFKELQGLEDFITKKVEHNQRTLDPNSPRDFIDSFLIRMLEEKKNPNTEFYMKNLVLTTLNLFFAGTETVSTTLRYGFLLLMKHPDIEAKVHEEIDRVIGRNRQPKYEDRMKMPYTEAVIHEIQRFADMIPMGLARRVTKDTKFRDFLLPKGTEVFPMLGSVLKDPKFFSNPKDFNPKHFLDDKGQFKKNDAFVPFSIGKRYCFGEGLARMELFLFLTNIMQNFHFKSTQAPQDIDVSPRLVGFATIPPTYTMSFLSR

[7] = target: T1, human CYP2A6; conditions: human, pH 7.5
[8] = target: T2, CYP2A13 (Homo sapiens (Human), UniProt Q16696); test: in vitro
T2 sequence (Q16696 whole entry): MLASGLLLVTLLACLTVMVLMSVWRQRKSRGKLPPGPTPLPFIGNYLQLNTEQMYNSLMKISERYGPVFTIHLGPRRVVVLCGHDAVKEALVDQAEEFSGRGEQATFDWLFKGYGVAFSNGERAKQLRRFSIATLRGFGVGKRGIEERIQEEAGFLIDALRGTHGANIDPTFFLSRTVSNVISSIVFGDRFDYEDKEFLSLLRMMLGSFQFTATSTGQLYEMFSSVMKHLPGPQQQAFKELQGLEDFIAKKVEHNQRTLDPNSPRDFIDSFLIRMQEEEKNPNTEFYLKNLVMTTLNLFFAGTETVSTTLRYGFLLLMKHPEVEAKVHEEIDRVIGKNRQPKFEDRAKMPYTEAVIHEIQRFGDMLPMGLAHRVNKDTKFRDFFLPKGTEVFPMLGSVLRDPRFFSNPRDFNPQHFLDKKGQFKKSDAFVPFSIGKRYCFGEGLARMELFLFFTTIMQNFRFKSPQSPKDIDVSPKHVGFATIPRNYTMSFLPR

[9] = target: T2, CYP2A13; test: Inhibition of human CYP2A13; conditions: human
[10] = target: Acetylcholine Binding Protein (Lymnaea stagnalis (Great pond snail) (Helix stagnalis), UniProt P58154); design: species or system Lymnaca stagnalis
Chain of Acetylcholine Binding Protein (P58154 20-229 limits assumed): as the sequence (P58154 20-229 limits assumed) above

[11] = tested on: NNK-dependent tumorigenesis in mice; conditions: mouse, in vivo; cited from earlier work
[12] = target: T2, CYP2A13; conditions: cited from earlier work

T1 sequence (P11509 whole entry): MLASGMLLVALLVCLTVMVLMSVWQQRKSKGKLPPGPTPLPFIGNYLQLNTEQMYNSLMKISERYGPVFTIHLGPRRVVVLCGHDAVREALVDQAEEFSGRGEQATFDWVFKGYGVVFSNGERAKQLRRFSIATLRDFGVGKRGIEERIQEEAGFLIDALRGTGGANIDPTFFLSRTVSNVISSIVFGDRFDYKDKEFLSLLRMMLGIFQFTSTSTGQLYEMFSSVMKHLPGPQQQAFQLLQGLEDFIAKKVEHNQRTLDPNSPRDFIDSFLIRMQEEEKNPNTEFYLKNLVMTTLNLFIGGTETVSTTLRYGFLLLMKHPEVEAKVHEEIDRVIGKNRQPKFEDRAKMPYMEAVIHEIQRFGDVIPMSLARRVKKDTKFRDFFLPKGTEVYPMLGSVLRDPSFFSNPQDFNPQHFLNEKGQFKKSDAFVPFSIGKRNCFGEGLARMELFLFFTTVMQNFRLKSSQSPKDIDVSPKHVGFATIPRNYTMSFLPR
Chain of CYP3A4 (P08684 whole entry): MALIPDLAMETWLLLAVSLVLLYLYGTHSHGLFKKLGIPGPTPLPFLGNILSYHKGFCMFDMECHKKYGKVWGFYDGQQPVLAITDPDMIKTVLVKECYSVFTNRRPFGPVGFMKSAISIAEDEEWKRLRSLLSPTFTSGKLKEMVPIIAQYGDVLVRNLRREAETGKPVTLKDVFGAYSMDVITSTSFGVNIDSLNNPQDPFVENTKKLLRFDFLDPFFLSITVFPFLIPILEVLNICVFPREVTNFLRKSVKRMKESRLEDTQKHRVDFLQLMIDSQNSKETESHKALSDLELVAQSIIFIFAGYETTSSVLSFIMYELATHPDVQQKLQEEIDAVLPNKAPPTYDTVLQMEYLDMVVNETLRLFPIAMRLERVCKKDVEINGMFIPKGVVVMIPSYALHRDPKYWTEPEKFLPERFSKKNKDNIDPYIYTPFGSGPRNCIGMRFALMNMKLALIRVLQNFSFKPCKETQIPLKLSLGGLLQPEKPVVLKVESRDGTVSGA
Chain of CYP3A4 relative to CYP2A6 (P08684 whole entry): as above

CN1CCCC1c1cccnc1 (centres unmarked) [Compound 54, Nicotine]
Ki [1]: 4.4 ± 0.6 µM

CN1CCCC1c1cccnc1 (centres unmarked) [Compound 54]
IC50 [1]: 26.3 ± 3.4 µM | IC50 [2]: 142 ± 15.7 µM | selectivity ratio [3]: 5

OCC1CCC(c2cccnc2)O1 (centres unmarked) [Compound 69]
IC50 [4]: 61.4 ± 17.7 µM | binding to the AchBP (in words) ([5]; fluorescence quenching): non-binders | AchBP ([5]; intrinsic fluorescence quenching, 20 nM AchBP): −

c1cncc(-c2ccsc2)c1 [TD-I-145]
IC50 [6]: 0.8 µM | IC50 [7]: 1.37 ± 0.23 µM | inhibition at 1 µM [8]: 12%

NCc1ccc(-c2cccnc2)o1 [TD-II-063]
IC50 [6]: 0.6 µM | inhibition at 1 µM [8]: 29%

O/N=C/c1ccc(-c2cccnc2)o1 [TD-II-065 ESP trans isomer]
IC50 [7]: 4.24 ± 0.49 µM | inhibition at 1 µM [8]: 41%

CNCC#Cc1cccnc1 [TD-IV-091 41]
inhibition at 1 µM [8]: 2%

CC(=O)SCc1ccc(-c2cccnc2)o1 [TD-V-099]
inhibition at 1 µM [9]: 13% | IC50 [1]: 1.8 ± 0.3 µM

c1cncc(-c2ccc(CNCc3ccc(-c4cccnc4)s3)s2)c1 [bis((5-(pyridin-3-yl)thiophen-2-yl)methyl)amine]
% of Control [10]: 10%

COc1c2occc2cc2ccc(=O)oc12 [methoxsalen (9-methoxypsoralen), 9-methoxypsoralen]
NNK-dependent tumorigenesis in mice (in words) [11]: strongly inhibited

COc1c2occc2cc2ccc(=O)oc12 [methoxypsoralen (8-methoxypsoralen), 8-methoxypsoralen]
Ki [12]: 0.11 µM
